The results in this text go back to patent publication US6046329A, “Uracil derivatives” (Byk Gulden Lomberg Chemische Fabrik GmbH, priority 1994, dated 2000).

One assay deals with T1, 5-HT1A receptor (Sus scrofa, UniProt A0A4X1UTF5).
T1 construct: membranes from pig brain cortex; from tissue; host or cells: pig brain cortex membranes
T1 sequence (A0A4X1UTF5 1-422): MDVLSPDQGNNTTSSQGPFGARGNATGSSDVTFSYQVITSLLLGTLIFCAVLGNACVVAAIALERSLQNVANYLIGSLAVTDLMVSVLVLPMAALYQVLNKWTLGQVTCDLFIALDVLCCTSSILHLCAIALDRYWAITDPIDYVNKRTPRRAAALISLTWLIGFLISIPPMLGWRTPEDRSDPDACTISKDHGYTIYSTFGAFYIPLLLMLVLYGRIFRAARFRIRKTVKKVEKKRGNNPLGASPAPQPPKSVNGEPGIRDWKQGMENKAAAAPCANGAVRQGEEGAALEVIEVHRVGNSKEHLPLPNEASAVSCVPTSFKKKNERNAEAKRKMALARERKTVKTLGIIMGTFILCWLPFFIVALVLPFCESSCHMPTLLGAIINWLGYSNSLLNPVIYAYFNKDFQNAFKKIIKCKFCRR
As to the kind of experiment: Radioligand binding with [3H]8-OH-DPAT, affinity for 5-HT1A receptor. The settings on record: membranes from pig brain cortex, IC50 corrected according to Cheng and Prusoff, read-out: Receptor affinity 5-HT1A, expressed in pKI values (converted). How it is done:
The affinity of substances for the 5-HT1A receptor was determined in radioligand binding studies using [^3 H]8-OH-DPAT as a radioligand. 50-150 μg of membranes from pig brain cortex were incubated in a total volume of 0.25-0.5 ml with [^3 H]8-OH-DPAT (0.2 to 0.4 nmol/l) in the presence of rising concentrations of substances. The incubation buffer used was 50 mmol/l tris/HCl pH 8.2, 1 mmol/l MnCl2. The nonspecific binding was determined in separate batches in the presence of 10 μmol/l of 5-HT. After 30 min at 23° C., the bound radioactivity was separated from the free radioactivity by rapid filtration of the incubation batch at 0° C. through glass fiber filters. The filters were washed twice with 3.5 ml each of cold filtration buffer (50 mmol/l tris/HCl pH 7.4, 10 mmol/l MgCl2, 10% polyethylene glycol 6000). The filter-bound radioactivity was determined by liquid scintillation counting.
(§1) For each substance, dose-response curves were plotted by means of nonlinear regression using the Inplot program (GraphPad, Sorento, Calif., USA). IC50 values were corrected by the concentration of the radioligand employed according to the formula of Cheng and Prusoff. The resulting KI values (see following table) represent the affinity of the respective substance for the tested receptor. The compounds according to the invention investigated according to the model illustrated in greater detail above have been provided in the following table with numbers which correspond to the numbers of these compounds in the examples.

A further assay addresses T2, α1A receptor (Rattus norvegicus, UniProt P43140).
T2 construct: membranes from rat brain cortex; from tissue; host or cells: rat brain cortex membranes
T2 sequence (P43140 1-466): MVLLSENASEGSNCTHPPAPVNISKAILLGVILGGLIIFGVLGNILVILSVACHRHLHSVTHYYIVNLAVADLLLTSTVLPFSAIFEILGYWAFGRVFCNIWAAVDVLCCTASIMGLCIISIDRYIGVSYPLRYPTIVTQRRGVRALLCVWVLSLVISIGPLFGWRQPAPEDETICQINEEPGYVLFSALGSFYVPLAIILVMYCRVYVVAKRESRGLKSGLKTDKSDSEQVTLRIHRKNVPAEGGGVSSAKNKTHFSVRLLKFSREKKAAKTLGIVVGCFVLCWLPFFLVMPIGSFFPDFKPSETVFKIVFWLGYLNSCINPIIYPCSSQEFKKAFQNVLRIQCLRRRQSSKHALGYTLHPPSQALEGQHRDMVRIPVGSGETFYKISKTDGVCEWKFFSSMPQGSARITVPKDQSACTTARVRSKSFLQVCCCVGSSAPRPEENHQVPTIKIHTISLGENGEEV
As to the kind of experiment: Radioligand binding with [3H]prazosine, affinity for α1A receptor subtype. The settings on record: membranes from rat brain cortex, IC50 corrected according to Cheng and Prusoff, read-out: Receptor affinity α1A, expressed in pKI values (converted). How it is done:
(§2) The affinity of substances for α1 receptor subtypes was determined in radioligand binding studies using [^3 H]prazosine as a radioligand. 50-200 μg of membranes from rat brain cortex were incubated in a total volume of 0.5-1 ml with [^3 H]prazosine (0.2 to 0.5 nmol/l) in the presence of rising concentrations of substances. The incubation buffer used was 50 mmol/l tris/HCl pH 7.5, 1 mmol/l EDTA, 0.1 mmol/l PMSF. The nonspecific binding was determined in separate batches in the presence of 10 μmol/l of phentolamine or 1 μmol/l of prazosine. After 1 h at 37° C., the bound radioactivity was separated from the free radioactivity by rapid filtration of the incubation batch at 0° C. through glass fiber filters. The filters were washed twice with 3.5 ml each of cold filtration buffer (50 mmol/l tris/HCl pH 7.4, 10 mmol/l MgCl2, 10% polyethylene glycol 6000). The filter-bound radioactivity was determined by liquid scintillation counting. Substances with subtype selectivity for the α1 receptor subtypes were tested again in the presence of 3 nmol/l of WB 4101. WB4101 blocks the binding of [^3 H]prazosine to the α1A receptor subtype and the remaining binding corresponds to that to the α1B receptor.
as §1

Another assay addresses T3, α1B receptor (Rattus norvegicus, UniProt P15823).
T3 construct: membranes from rat brain cortex; from tissue; host or cells: rat brain cortex membranes
T3 sequence (P15823 1-515): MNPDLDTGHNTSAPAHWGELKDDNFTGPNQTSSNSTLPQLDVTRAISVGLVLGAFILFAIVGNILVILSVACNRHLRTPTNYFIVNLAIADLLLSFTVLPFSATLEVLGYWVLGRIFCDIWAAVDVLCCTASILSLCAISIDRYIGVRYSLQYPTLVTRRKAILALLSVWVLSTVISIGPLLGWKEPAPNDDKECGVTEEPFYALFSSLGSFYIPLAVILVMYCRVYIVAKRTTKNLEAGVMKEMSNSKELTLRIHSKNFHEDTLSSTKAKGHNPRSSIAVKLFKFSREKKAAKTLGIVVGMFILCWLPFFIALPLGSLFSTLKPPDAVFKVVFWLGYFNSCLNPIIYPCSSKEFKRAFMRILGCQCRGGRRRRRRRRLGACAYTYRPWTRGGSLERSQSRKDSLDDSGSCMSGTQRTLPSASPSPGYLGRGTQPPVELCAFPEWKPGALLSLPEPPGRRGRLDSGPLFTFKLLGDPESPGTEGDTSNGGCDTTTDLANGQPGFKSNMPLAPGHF
The assay is described as follows: Radioligand binding with [3H]prazosine (in the presence of WB 4101), affinity for α1B receptor subtype. The settings on record: membranes from rat brain cortex, subtype-selective substances tested again in the presence of 3 nmol/l WB 4101, Cheng and Prusoff, read-out: Receptor affinity α1B, expressed in pKI values (converted). How it is done: as §2, §1

On to `COc1ccccc1N1CCN(CCCNC2=CC(=O)N(C)S(=O)(=O)N2C)CC1` [Compound 18, 5-{3-[4-(2-Methoxyphenyl)piperazin-1-yl]-propylamino}-2,6-dimethyl-1,1-dioxo-6H-[1,2,6]thiadiazin-3-one], for which the Ki at 5-HT1A receptor is 15.8 nM; on α1A receptor, 6.31 nM; on α1B receptor, 126 nM.
With `COc1ccccc1N1CCN(CCCNc2cc(=S)n(C)c(=O)n2C)CC1` [Compound 19, 6-{3-[4-(2-Methoxyphenyl)piperazin-1-yl]-propylamino}-1,3-dimethyl-4-thioxo-3,4-dihydro-1H-pyrimidin-2-one], the Ki on 5-HT1A receptor is 10 nM; at α1A receptor it was 31.6 nM; at α1B receptor it was 31.6 nM.
Take `Cc1c(NCCCN2CCN(c3cccc4c3OCC(CO)O4)CC2)n(C)c(=O)n(C)c1=O` (stereo not drawn) [Compound 9, 1,3,5-Trimethyl-6-[[3-[4-((2,3-dihydro-2-hydroxymethyl)-1,4-benzodioxin-5-yl)-1-piperazinyl]propyl]amino]-2,4(1H,3H)-pyrimidinedione]: the values for the Ki on 5-HT1A receptor, at α1A receptor and at α1B receptor were 0.2 nM, 2 nM and 1580 nM, respectively.
As to `Cn1c(NCCCN2CCN(c3cccc4c3OCC(CO)O4)CC2)c(Cc2c(NCCCN3CCN(c4cccc5c4OCC(CO)O5)CC3)n(C)c(=O)n(C)c2=O)c(=O)n(C)c1=O` (stereo not drawn) [Compound 10, Bis[1,3-dimethyl-6-[[3-[4-((2,3-dihydro-2-hydroxymethyl)-1,4-benzodioxin-5-yl)-1-piperazinyl]propyl]amino]-2,4(1H,3H)-pyrimidinedione-5,5'-yl]methane], the figures for the Ki at 5-HT1A receptor, at α1A receptor and on α1B receptor were 0.501 nM, 7.94 nM and 7.94 nM, respectively.
`COc1cc(N)ccc1N1CCN(CCCNc2c(C)c(=O)n(C)c(=O)n2C)CC1` [Compound 20, 1,3,5-Trimethyl-6-[[3-[4-(4-amino-2-methoxyphenyl)-1-piperazinyl]propyl]amino]-2,4(1H,3H)-pyrimidinedione]: the Ki on 5-HT1A receptor is 2 nM; at α1A receptor, 100 nM; at α1B receptor, 6310 nM.
Regarding `Cc1c(NCCCN2CCN(c3ccccc3O)CC2)n(C)c(=O)n(C)c1=O` [Compound 13, 1,3,5-Trimethyl-6-[[3-[4-(2-hydroxyphenyl)-1-piperazinyl]propyl]amino]-2,4(1H,3H)-pyrimidinedione], the figures for the Ki on 5-HT1A receptor, on α1A receptor and at α1B receptor were 0.251 nM, 20 nM and 20 nM, respectively.
Turning to `CCOc1ccccc1N1CCN(CCCNc2c(CCC#N)c(=O)n(C)c(=O)n2C)CC1` [Compound 3, 5-Cyanoethyl-1,3-dimethyl-6-[[3-[4-(2-ethoxyphenyl)-1-piperazinyl]propyl]amino]-2,4(1H,3H)-pyrimidinedione], the values for the Ki on 5-HT1A receptor, at α1A receptor and on α1B receptor were 0.398 nM, 0.501 nM and 63.1 nM, respectively.
Regarding `CCOC(=O)c1c(NCCCN2CCN(c3ccccc3OC)CC2)n(C)c(=O)n(C)c1=O` [Compound 12, 1,3-Dimethyl-5-ethoxycarbonyl-6-[[3-[4-(2-methoxyhenyl)-1-piperazinyl]propyl]amino]-2,4(1H,3H)-pyrimidinedione], the Ki at 5-HT1A receptor is 6.31 nM; on α1A receptor, 25.1 nM; on α1B receptor it was 25.1 nM.
For the compound `CCOc1cc(F)ccc1N1CCN(CCCNc2c(Cc3c(NCCCN4CCN(c5ccc(F)cc5OCC)CC4)n(C)c(=O)n(C)c3=O)c(=O)n(C)c(=O)n2C)CC1` [Compound 4, Bis[1,3-dimethyl-6-[[3-[4-(2-ethoxy-4-fluorophenyl)-1-piperazinyl]propyl]amino]-2,4(1H,3H)-pyrimidinedione-5,5'-yl]methane], the Ki at 5-HT1A receptor was 39.8 nM; at α1A receptor it was 1 nM; at α1B receptor, 1 nM.
As for `COc1cc(NC(C)=O)ccc1N1CCN(CCCNc2c(C)c(=O)n(C)c(=O)n2C)CC1` [Compound 21, 1,3,5-Trimethyl-6-[[3-[4-(4-acetylamino-2-methoxyphenyl)-1-piperazinyl]propyl]amino]-2,4(1H,3H)pyrimidinedione], the figures for the Ki at 5-HT1A receptor, on α1A receptor and on α1B receptor were 5.01 nM, more than 10000 nM and more than 10000 nM, respectively.
